Assay results published in paper PMC10937199 (ESMO Open, 2024).

System: patients with advanced solid tumors
Assay: Safety
Type: in vivo, human
Conditions: Part A

COc1ccc([C@@H](O)c2cc(-c3ncnc4cc(N5CCOCC5)ccc34)c(F)cc2Cl)nn1 [Peposertib]
IRR (100 mg b.i.d., all grade): 0 n (%) | Immune-related AE (100 mg b.i.d., all grade): 0 n (%) | Serious TEAE (100 mg b.i.d., all grade): 0 n (%) | Serious TEAE, peposertib related (100 mg b.i.d., all grade): 0 n (%) | Serious TEAE, treatment related (100 mg b.i.d., all grade): 0 n (%) | TEAE (100 mg b.i.d., all grade): 3 (75.0) n (%) | TEAE, peposertib related (100 mg b.i.d., all grade): 2 (50.0) n (%) | TEAE, treatment related (100 mg b.i.d., all grade): 3 (75.0) n (%) | TEAEs leading to death (100 mg b.i.d., all grade): 0 n (%) | Treatment-related AE leading to death (100 mg b.i.d., all grade): 0 n (%) | IRR (100 mg b.i.d., grade ≥3): 0 n (%) | Immune-related AE (100 mg b.i.d., grade ≥3): 0 n (%) | Serious TEAE (100 mg b.i.d., grade ≥3): 0 n (%) | Serious TEAE, peposertib related (100 mg b.i.d., grade ≥3): 0 n (%) | Serious TEAE, treatment related (100 mg b.i.d., grade ≥3): 0 n (%) | TEAE (100 mg b.i.d., grade ≥3): 0 n (%) | TEAE, peposertib related (100 mg b.i.d., grade ≥3): 0 n (%) | TEAE, treatment related (100 mg b.i.d., grade ≥3): 0 n (%) | TEAEs leading to death (100 mg b.i.d., grade ≥3): 0 n (%) | Treatment-related AE leading to death (100 mg b.i.d., grade ≥3): 0 n (%) | Immune-related AE (200 mg b.i.d., all grade): 2 (18.2) n (%) | Serious TEAE (200 mg b.i.d., all grade): 6 (54.5) n (%) | Serious TEAE, peposertib related (200 mg b.i.d., all grade): 0 n (%) | Serious TEAE, treatment related (200 mg b.i.d., all grade): 3 (27.3) n (%) | TEAE (200 mg b.i.d., all grade): 11 (100.0) n (%) | TEAE, peposertib related (200 mg b.i.d., all grade): 10 (90.9) n (%) | TEAE, treatment related (200 mg b.i.d., all grade): 10 (90.9) n (%) | TEAEs leading to death (200 mg b.i.d., all grade): 0 n (%) | Treatment-related AE leading to death (200 mg b.i.d., all grade): 0 n (%) | IRR (200 mg b.i.d., grade ≥3): 0 n (%) | Immune-related AE (200 mg b.i.d., grade ≥3): 2 (18.2) n (%) | Serious TEAE (200 mg b.i.d., grade ≥3): 6 (54.5) n (%) | Serious TEAE, peposertib related (200 mg b.i.d., grade ≥3): 0 n (%) | Serious TEAE, treatment related (200 mg b.i.d., grade ≥3): 3 (27.3) n (%) | TEAE (200 mg b.i.d., grade ≥3): 7 (63.6) n (%) | TEAE, peposertib related (200 mg b.i.d., grade ≥3): 2 (18.2) n (%) | TEAE, treatment related (200 mg b.i.d., grade ≥3): 4 (36.4) n (%) | TEAEs leading to death (200 mg b.i.d., grade ≥3): 0 n (%) | Treatment-related AE leading to death (200 mg b.i.d., grade ≥3): 0 n (%) | Peposertib-related pneumonitis (250 mg b.i.d.): 25.0% | Serious TEAE: diarrhea (250 mg b.i.d.): 2 n | IRR (250 mg b.i.d., all grade): 0 n (%) | Immune-related AE (250 mg b.i.d., all grade): 3 (75.0) n (%) | Serious TEAE (250 mg b.i.d., all grade): 4 (100.0) n (%) | Serious TEAE, peposertib related (250 mg b.i.d., all grade): 2 (50.0) n (%) | Serious TEAE, treatment related (250 mg b.i.d., all grade): 3 (75.0) n (%) | TEAE (250 mg b.i.d., all grade): 4 (100.0) n (%) | TEAE, peposertib related (250 mg b.i.d., all grade): 3 (75.0) n (%) | TEAE, treatment related (250 mg b.i.d., all grade): 3 (75.0) n (%) | TEAEs leading to death (250 mg b.i.d., all grade): 0 n (%) | Treatment-related AE leading to death (250 mg b.i.d., all grade): 0 n (%) | IRR (250 mg b.i.d., grade ≥3): 0 n (%) | Immune-related AE (250 mg b.i.d., grade ≥3): 2 (50.0) n (%) | Serious TEAE (250 mg b.i.d., grade ≥3): 4 (100.0) n (%) | Serious TEAE, peposertib related (250 mg b.i.d., grade ≥3): 2 (50.0) n (%) | Serious TEAE, treatment related (250 mg b.i.d., grade ≥3): 3 (75.0) n (%) | TEAE (250 mg b.i.d., grade ≥3): 4 (100.0) n (%) | TEAE, peposertib related (250 mg b.i.d., grade ≥3): 2 (50.0) n (%) | TEAE, treatment related (250 mg b.i.d., grade ≥3): 3 (75.0) n (%) | TEAEs leading to death (250 mg b.i.d., grade ≥3): 0 n (%) | Treatment-related AE leading to death (250 mg b.i.d., grade ≥3): 0 n (%) | Serious TEAE: disease progression (300 mg b.i.d.): 2 n | IRR (300 mg b.i.d., all grade): 0 n (%) | Immune-related AE (300 mg b.i.d., all grade): 2 (33.3) n (%) | Serious TEAE (300 mg b.i.d., all grade): 4 (66.7) n (%) | Serious TEAE, peposertib related (300 mg b.i.d., all grade): 0 n (%) | Serious TEAE, treatment related (300 mg b.i.d., all grade): 1 (16.7) n (%) | TEAE (300 mg b.i.d., all grade): 6 (100.0) n (%) | TEAE, peposertib related (300 mg b.i.d., all grade): 3 (50.0) n (%) | TEAE, treatment related (300 mg b.i.d., all grade): 4 (66.7) n (%) | TEAEs leading to death (300 mg b.i.d., all grade): 2 (33.3) n (%) | Treatment-related AE leading to death (300 mg b.i.d., all grade): 0 n (%) | IRR (300 mg b.i.d., grade ≥3): 0 n (%) | Immune-related AE (300 mg b.i.d., grade ≥3): 2 (33.3) n (%) | Serious TEAE (300 mg b.i.d., grade ≥3): 4 (66.7) n (%) | Serious TEAE, peposertib related (300 mg b.i.d., grade ≥3): 0 n (%) | Serious TEAE, treatment related (300 mg b.i.d., grade ≥3): 1 (16.7) n (%) | TEAE (300 mg b.i.d., grade ≥3): 5 (83.3) n (%) | TEAE, peposertib related (300 mg b.i.d., grade ≥3): 0 n (%) | TEAE, treatment related (300 mg b.i.d., grade ≥3): 2 (33.3) n (%) | TEAEs leading to death (300 mg b.i.d., grade ≥3): 2 (33.3) n (%) | Treatment-related AE leading to death (300 mg b.i.d., grade ≥3): 0 n (%) | IRR (400 mg b.i.d., all grade): 0 n (%) | Immune-related AE (400 mg b.i.d., all grade): 1 (25.0) n (%)
